As a reminder, the IC50 is the concentration at which inhibition is half-maximal. A high value points to a need for much substance.

“And” between values parts separate entries of the source, which are not always exact repeats. Identical values can stand only once.

One experiment concerns caspase-3. Description: Caspase-3 expression assay (quantitative real-time PCR). The experiment is classed as cell-based, human. Particulars: HepG2, 1.13 µM, 24 h; control = 1. How it is done:
The gene expression fold change of caspase-3 and -9 in the HepG2 cells treated with 1.13 µM of compound 17a for 24 h was determined using quantitative real-time PCR analysis.
The expression of caspase-3 and -9 in the liver HepG2 cells treated with 1.13 μM of 17a was determined using quantitative real-time PCR analysis, as presented in the Supplementary Materials.
Pharmaceuticals 2022, 15, x FOR PEER REVIEW 3 of 22
Figure S1. Simple linear regression for the correlation between cytotoxicity against HepG2 cell line […]
Figure S2. Simple linear regression for the correlation between cytotoxicity against MCF‐7 cell line […]
4.2.3. Cell cycle analysis
To determine the role of the synthesized compounds in cell cycle distribution, cell cycle analysis was performed using propidium iodide (PI) staining and flow cytometry analysis for compound 17a. […] The stained cells were measured using a BD FACSCalibur™ Flow Cytometer, and the data were analyzed using Flowing software (version 2.5.1, Turku Centre for Biotech‐ […]
Flow cytometry cell apoptosis analysis was used to investigate the apoptotic effect of the synthesized compounds. […] The stained cells were measured using a BD FACSCalibur™ Flow Cytometer and analyzed using Flowing software. […]
The expression of BAX and Bcl‐2 proteins were determined using Western blot anal‐ ysis. […]
On the technique in general: Real-time PCR tracks product formation cycle by cycle.

Another experiment concerns the target VEGFR-2 (Homo sapiens, UniProt P35968). Description: In vitro VEGFR-2 kinase inhibitory assay (VEGFR2 (KDR) Kinase Assay Kit).

Chain of VEGFR-2 (P35968 20-1356): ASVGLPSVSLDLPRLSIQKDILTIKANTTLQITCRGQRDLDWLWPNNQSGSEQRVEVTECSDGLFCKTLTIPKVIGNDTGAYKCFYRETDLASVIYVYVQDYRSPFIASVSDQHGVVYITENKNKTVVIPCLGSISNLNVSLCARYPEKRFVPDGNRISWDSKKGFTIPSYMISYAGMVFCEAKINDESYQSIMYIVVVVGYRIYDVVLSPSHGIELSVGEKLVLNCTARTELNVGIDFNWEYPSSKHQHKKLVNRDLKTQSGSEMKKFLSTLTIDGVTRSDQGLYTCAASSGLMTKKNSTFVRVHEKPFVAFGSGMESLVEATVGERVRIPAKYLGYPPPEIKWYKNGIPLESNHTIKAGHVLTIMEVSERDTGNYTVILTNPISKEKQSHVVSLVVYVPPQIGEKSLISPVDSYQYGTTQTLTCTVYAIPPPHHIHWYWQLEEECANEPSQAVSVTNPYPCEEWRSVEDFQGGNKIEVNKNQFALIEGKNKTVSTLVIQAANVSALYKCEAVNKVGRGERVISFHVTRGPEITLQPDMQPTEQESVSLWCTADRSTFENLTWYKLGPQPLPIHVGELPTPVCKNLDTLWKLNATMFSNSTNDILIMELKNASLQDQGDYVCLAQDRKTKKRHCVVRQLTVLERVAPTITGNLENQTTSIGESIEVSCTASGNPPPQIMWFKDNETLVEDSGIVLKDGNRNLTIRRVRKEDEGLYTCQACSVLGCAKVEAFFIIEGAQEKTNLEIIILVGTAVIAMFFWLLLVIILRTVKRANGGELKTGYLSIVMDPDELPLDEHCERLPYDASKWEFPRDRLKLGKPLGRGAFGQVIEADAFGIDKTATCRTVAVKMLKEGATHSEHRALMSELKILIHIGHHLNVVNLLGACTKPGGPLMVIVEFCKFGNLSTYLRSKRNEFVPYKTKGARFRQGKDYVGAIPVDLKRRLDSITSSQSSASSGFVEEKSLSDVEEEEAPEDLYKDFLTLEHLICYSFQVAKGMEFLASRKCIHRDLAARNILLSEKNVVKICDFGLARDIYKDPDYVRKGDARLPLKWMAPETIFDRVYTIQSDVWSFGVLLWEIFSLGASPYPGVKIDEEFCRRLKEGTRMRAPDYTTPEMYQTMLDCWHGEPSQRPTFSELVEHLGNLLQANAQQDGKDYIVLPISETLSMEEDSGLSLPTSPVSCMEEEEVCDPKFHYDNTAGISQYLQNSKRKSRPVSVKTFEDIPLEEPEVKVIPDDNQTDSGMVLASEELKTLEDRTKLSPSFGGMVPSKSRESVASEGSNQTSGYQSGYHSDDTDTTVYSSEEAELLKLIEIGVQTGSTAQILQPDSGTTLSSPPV
Protocol for VEGFR-2: In vitro VEGFR‐2 kinase inhibitory assay
for their inhibitory activity against VEGFR‐2. Human BPS bioscience® VEGFR2 (KDR) Ki‐ nase Assay Kit (Enzyme‐Linked Immunosorbent Assay) was utilized in this test. The lu‐ minescent signal from the assay is correlated with the amount of ATP present and is in‐ versely correlated with the amount of kinase activity. The compounds were diluted to 100 μM in 10% DMSO and 5 ml of the diluted solution was added to a 50 ml reaction so that the final concentration of DMSO was 1% in all of reactions. All of the enzymatic reactions were conducted at 30 °C for 40 min. The 50 μl reaction mixture contains 40 μM Tris, pH 7.4, 10 μM MgCl2, 0.1 mg/ml BSA, 0.2 mg/ml Poly (Glu, Tyr) substrate, 10 μM ATP, and VEGFR‐2. After the enzymatic reaction, 50 ml of Kinase‐GloPlus Luminescence kinase as‐ say solution (Promega) was added to each reaction and the plate was incubated for 5 min at room temperature. Luminescence signal was measured using a BioTek Synergy 2 mi‐ croplate reader. The protein kinase assays used to determine IC50 values were performed using a ADP‐GloTM assay kit from Promega, which measures the generation of ADP by the protein kinase. Generation of ADP by the protein kinase reaction leads to an increase in luminescence signal in the presence of the ADP‐GloTM assay kit. The assay was started by incubating the reaction mixture in a 96‐well plate at 30 °C for 30 min. After the 30 mi n incubation period, the assay was terminated by the addition of 25 ml of ADP‐GloTM Re‐ agent (Promega). The 96‐well plate was shaken and then incubated for 40 min at ambient temperature; 50 ml of Kinase detection reagent was added, the 96‐well reaction plate wa s then read using the ADP‐Glo Luminescences Protocol on a GloMax plate reader (Promega: Catalog #E7031). The blank control was set up which included all the assay components, except the addition of appropriate substrates (replaced with equal volume of kinase assay buffer). The corrected activity for each protein kinase target was deter‐ mined by removing the blank control value. IC50 determination for inhibitor against VEGFR‐2 was estimated by generating a graph of log inhibitor vs normalized response with variables.

For `O=C1Nc2ccccc2C1=Nc1ccc(C(=O)NNC(=S)Nc2ccccc2)cc1` [Compound 17a, 2-(4-((2-Oxoindolin-3-ylidene)amino)benzoyl)-N-phenylhydrazinecarbothioamide], the “Gene Expression Fold Change (Normalized to β-Actin) Caspases-3” value in the experiment on caspase-3 is 6.88 fold and 6.9 fold and 6.889 fold. The compound further showed an IC50 against VEGFR-2 of 78 ± 3 nM. Moreover, on VEGFR-2 (ratio of IC50 to sunitinib), the “fold more potent than sunitinib, VEGFR-2 inhibition” value amounted to 1.78 fold.

The values are drawn from article PMC9698773, “Design, Synthesis, Molecular Modeling, and Anticancer Evaluation of New VEGFR-2 Inhibitors Based on the Indolin-2-One Scaffold” (Pharmaceuticals, 2022).
